Test results taken from US6130220A, “Sulfamide-metalloprotease inhibitors” (Syntex (USA) Inc., priority 1999, dated 2000).
Like-named read-outs stand apart in the source and are kept apart here.

What was measured:
Collagenase-I = target: T1, Collagenase-I (Homo sapiens, UniProt P03956); assay: MMP enzymatic assay, hydrolysis of MCA-Pro-Leu-Gly-Leu-DPA-Ala-Arg-NH2, Collagenase-I; format: biochemical
T1 construct: the collagenase-1 catalytic domain was released by treatment with 1 mM of aninophenylmercuric acetate; ubiquitin (cleaved yes); made in house; host or cells: E. coli
T1 sequence (P03956 100-269 limits assumed): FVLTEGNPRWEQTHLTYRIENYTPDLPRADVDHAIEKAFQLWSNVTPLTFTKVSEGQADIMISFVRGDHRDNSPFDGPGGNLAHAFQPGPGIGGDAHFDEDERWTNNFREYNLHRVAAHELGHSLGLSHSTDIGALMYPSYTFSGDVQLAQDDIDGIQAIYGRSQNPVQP

[1] = system: TNF-α release from Human Monomac 6 cells; assay: Inhibition of TNF release in vitro, Monomac 6 cells, LPS/PMA; format: cell-based; conditions: 2 h
Procedure: The activity of compounds of this invention in inhibiting the TNF release was determined, using the a minor modification of the method described in Pradines-Figueres, A. and Raetz, C. R. H., J. Biol. Chem., 267 (32), 23261, (1992).
Human Monomac 6 cells (Ziegler-Heitbrock, H. W. L., et al., Int. J. Cancer, 41, 456, (1988)) were cultured at 37° C. in RPMI 1640 medium containing 10% fetal calf serum to a density of 1×10^5 cells/ml. 0.23 ml of these cells were placed in each well of a tissue culture plate and the cells were incubated for 15 min. The test compounds were dissolved in above mentioned medium and added and the incubation was continued for an additional 15 min. 10 μl of an lipopolysaccharide/phorbol-12-myristate-13-acetate (LPS/PMA) mixture was added such that the final concentration of lipopolysaccharide was 10 ng/ml and the final concentration of phorbol-12-myristate-13-acetate was 30 ng/ml. The cells were incubated for 2 h after which the plate was centrifuged and the medium was removed and analyzed for TNF content. The analysis was performed using a TNF Quantikine® Inmunoassay (R & D Systems, Minneapolis, Minn. 55413) by following the manufacturer's protocol.
The TNF-α inhibitory activity of test materials, i.e., the measure of the TNF-α content in the test group relative to the vehicle treated group (control group) was: […]

TNF-α = assay: Inhibition of LPS induced TNF-α production in mice in vivo; conditions: s.c. compound, LPS 50 μg/mouse i.p. 1 h later, blood after 1.5 h
Procedure: The activity of compounds of this invention in inhibiting the TNF-α release was determined, using a minor modification of the methods described in Zanetti, G.; Heumann, D., et. al., "Cytokine production after intravenous or peritoneal Gram-negative bacterial challenge in mice" J. Immunol., 148, 1890, (1992) and Sekut, L., Menius, J. A., et. al., "Evaluation if the significance of elevated levels of systemic and localized tumor necrosis factor in different animal models of inflammation" J. Lab. Clin. Med., 124, 813, (1994).
Female Balbic mice were anesthetized and injected subcutaneously with the test compounds dissolved in CMC vehicle or hydroxypropylmethyl cellulose based vehicle. Control animals received only the vehicle. After 1 h, LPS (50 μg/mouse, Sigma #13129, Sigma Chemical Co., St. Louis, Mo.) was injected intraperitoneally. After 1.5 h, blood was collected from the retro-rbital plexus region of the animals in a miicrotainer serum separator tube (Becton Dickinson, Cat. No. #5960, Becton Dickinson & Co., Franklin Lakes, N.J.). The sera was separated and the amount of TNF-α was determined using the EM-TNFA® kit (Endogen, Woburn, Mass.) by following the manufacturer's protocol.

Collagenase-III = assay: MMP enzymatic assay, hydrolysis of MCA-Pro-Leu-Gly-Leu-DPA-Ala-Arg-NH2, Collagenase-III; format: biochemical; conditions: 37° C., pH 7.5, 2.5% DMSO
Procedure: The propeptide and catalytic domain portion of human collagenase-3 was expressed in E. Coli as an N-terminal fusion protein with ubiquitin. After purification, the catalytic domain was released by treatment with 1 mM APMA for 1 hour at 37° C., and then purified by zinc chelate chromatography.
Rat collagenase-3 was purified in active form from the culture media of uterine smooth muscle cells as described in Roswit, W. T. et al., Arch. Biochem. Biophys., 225, 285-295 (1983).
The matrix metalloprotease inhibitory activity of compounds of this invention in vitro was determined based on the hydrolysis of MCA-Pro-Leu-Gly-Leu-DPA-Ala-Arg-NH2 (Bachem, Inc.) at 37° C. as described in Knight, C. G., et al., FEBS Lett., 296, 263-266 (1992).
The matrix metalloprotease enzyme was diluted with assay buffer (50 mM Tricine pH 7.5, 200 mM NaCl, 10 mM CaCl2, and 0.005% Brij-35) containing 10 μmole of above substrate dissolved in DMSO. Compounds of the invention dissolved in DMSO or only DMSO (control samples) were added such that the final DMSO concentration in all assays was 2.5%. The fluorescence changes were monitored with a Perkin-Elmer LS-50B flourimeter using an excitation wavelength of 328 nm and an emission wavelength of 393 nm.

[2] = 37° C., pH 7.5, 2.5% DMSO; read-out: Collagenase-I IC50

O=C(NO)[C@H](CSc1ccccc1)NS(=O)(=O)N1CCN(c2ccc(Cl)cn2)CC1 [compound 106, N-hydroxy-2-(R)-{[4-(5-chloropyridin-2-yl)piperazine-1-sulfonyl]amino}-3-(phenylthio)propionamide]
IC50 (Collagenase-I; [2]): 0.223 µM
inhibition at 10 µM ([1]; MONO-MAC-6, 10 μM, read-out: TNF-α % inhibition, Conc. 10 μM): 41%

O=C(NO)[C@H]1CCCCN1S(=O)(=O)N1CCC(c2c[nH]c3c(F)c(F)c(F)c(F)c23)CC1 [compound 299, N-hydroxy-1-[4-(4,5,6,7-tetrafluoroindol-3-yl)piperdine-1-sulfonyl]piperidine-2-(R)-carboxamide]
IC50 (Collagenase-I; [2]): > 50 µM
TNF-α % inhibition (TNF-α): 52%
inhibition at 2 µM ([1]; MONO-MAC-6, 2 μM, read-out: TNF-α % inhibition, Conc. 2 μM): 90%
IC50 (Collagenase-III): 0.41 µM

CC(C)[C@@H](NS(=O)(=O)N1CCN(c2ccc(OCc3ccncc3)cc2)CC1)C(=O)O [compound 413, 2-(R)-{[4-(pyridin-4-ylmethyloxyphenyl)piperazine-1-sulfonyl]amino}-3-methylbutyric acid]
IC50 (Collagenase-I; read-out: Collagenase-I IC50; 37° C., pH 7.5, 2.5% DMSO): 9.3 µM
